Experimental data published in patent publication US20030103993A1, “HLA-DR2 binding peptides” (Corixa Corporation, priority 2000, published 2003).

Key:
[1] = target: T1, HLA-DR2 (Homo sapiens, UniProt P01903+Q30154); assay: Peptide/DR2 competitive binding assay (biotinylated MBP 83-102Y83 vs test peptide, ELISA)
T1 construct: DR2 molecules were purified from the human EBV-B cell line; endogenous in cells; host or cells: human EBV-B cell line
Protocol: DR2 molecules were purified from the human EBV-B cell line. […] Mab L243 (IgG2a) affinity chromatography. A 10 μM solution of affinity purified DR2 was biotinylated with 200 μM Biotin-XX-NHS in 0.25 NaHCO3/0.2% NP-40 for 1 hr. at room temperature.
The ability of peptides to bind HLA-DR2 was estimated by competitive peptide binding assay. Purified HLA-DR2 (2 μg/ml) was incubated with 50-fold excess Bt-MBP 83-102Y83 peptide in the presence or absence of test peptides. The ratio of Et-MEP 831-2Y83 peptide to the test peptide was 1:1. After incubation at 37° C. for 48 hrs, the complex was added to the wells coated with anti-DR antibody and incubated for 2 hours at 37° C. The wells were then washed and alkaline phosphatase-linked streptavidin was added and the reaction incubated for 1 hour at 37° C. The excess streptavidin was washed and the ELISA color was developed by using p-nitrophenol phosphate in 0.1M diethanolamine as substrate. The test peptide was considered to be the stronger binding peptide if the O.D was less than the O.D of Bt 83-102Y83 peptide in the absence of the test peptide.

[2] = system: SS8T cells; assay: T cell metabolic acidification rate (Cytosensor microphysiometer); type: cell-based, human
Source text: Freshly cultured SS8T cells were immobilized into microphysiometer cell capsules as described earlier (Arimilli et al., J. Immunol. Methods 212:49-59 (1998)) using low-melt agarose (Molecular Devices Corp., Sunnyvale, Calif.). Briefly, cells were rested from IL-2 pulsing for 2 days. Cells were counted and suspended in a serum-free loading medium (low-buffering RPMI 1640 containing 10% fatty acid free, endotoxin-free BSA). Cells were collected by centrifugation and resuspended at a concentration of 3×10^5 T cells per 7.5 μl of loading medium. Low-melt agarose (Molecular Devices Corp.), melted and stored at 37° C., was added to the suspended cells to a concentration of 2.5 μl per 7.5 μl. Ten μl of the agarose/cell mixture was immediately spotted into the center of the cell capsule cups (Molecular Devices Corp.) held in a 12 well culture plate. After 5 minutes, 2 ml of loading medium was placed in the capsule cup over the solidified agarose and a membrane insert was placed over the cells. The assembled cell capsule was loaded in the Cytosensor chamber at 37° C. and perfused at 50 μl per min with low-buffering RPMI 1640 medium containing […] but no added HEPES or bicarbonate. […]

[3] = system: SS8T cloned human T cells; assay: T cell receptor occupancy assay: γ-IFN production by SS8T T cell clone (ELISA); type: cell-based; settings: SS8T cells restricted to HLA-DR2 and MBP 84-102; 48 h incubation; text cites FIG. 2
Protocol: The Herpes saimiri virus (HSV) transformed SS8T human T cell clone was a generous gift from Dr. H. Wekerle. The clone is restricted to DR2 (DRB5*0101) and MBP (84-102) peptide. It was cultured in RPMI 1640 medium supplemented with 2 mM L-glutamine, 100 units/ml penicillin, 100 μg/ml streptomycin, 10% fetal bovine serum and 50 units/ml human recombinant IL-2 (rIL-2) at 37° C. (culture medium). Every alternate day, cells were transferred to fresh culture medium. Various peptides at different concentrations were incubated with the cells in a microtiter tissue culture plate at a density of 20,000 cells/200 μl/well in the absence of rIL-2. After 48 h of incubation at 37° C., the culture fluids were collected from each well to test for γ-IFN and TNF-β cytokines. The detection of γ-IFN was by Ab ELISA as described recently (Arimilli et a.l, J. Immunol. Methods 212:49-59 (1998)). For the detection of TNF-β, Nunc Maxisorb 96-well plates were coated with anti-human TNF-β mAb at a concentration of 0.5 μg/well and incubated at 4° C. overnight. The wells were blocked with 0.1% bovine serum albumin, and samples were incubated at RT for 2 h. A standard curve was generated by using recombinant human TNF-β with a dilution range of 500 to 0.01 ng/ml. […] The reaction was stopped by 2N sulfuric acid at 5 mm, and the absorbance was measured at 450 nm.

Substance	inhibition of the binding of biotinylated MBP 83-102 to DR2 ([1]; purified DR2, 50-fold molar excess biotinylated MBP 83-102Y83, increasing concentrations of test peptide, FIG. 1)	affinity of binding to DR2 relative to MBP peptide ([1]; synthesized peptide, compared with MBP 84-102 peptide)	activation of the MBP 83-102 specific T cells in the presence of increasing concentrations of test peptide ([2]; competition with MBP peptide, increasing concentrations)	stimulation of SS8T cells (extracellular acidification rate) ([2]; SS8T cells immobilized in agarose, exposed to peptide, FIG. 3)	γ-IFN production by SS8T cells exposed to peptide [3]
GHIKSSISFMGM [peptide #1]	to the same extent as the unbiotinylated MBP 83-102 peptide	comparatively in the same range as that of the MBP 83-102 peptide	decreasing activation of the hybridomas in a competitive manner		
Ac-YDENPVVHEKMVTPRTPP (Ac-YDENPVVHEKMVTPRTPP-NH2) [MBP 83-102 peptide, myelin basic protein peptide 83-102 with Y at position 83]				increased level of extracellular acidification rate within 10 minutes	specific increase in γ-IFN production
Ac-GFGYGGRASDYKSAHKGFKG (Ac-GFGYGGRASDYKSAHKGFKG-NH2) [MBP 124-143 peptide, myelin basic protein peptide 124-143, control]					did not show any increase in γ-IFN production
